Where a SMILES comes first, the peptide text is derived from it. The star is where a group is joined. AMC = Cc1cc(=O)oc2cc(N*)ccc12; Cbz = O=C(OCc1ccccc1)*
Columns and labels:
human legumain (hLEG) = target: T1, human legumain (hLEG) (Homo sapiens, UniProt Q99538); experiment: Enzyme kinetic assay with fluorogenic AMC substrates, hLEG; format: biochemical; settings: 2 nM hLEG; for Km: 50 mM citric acid pH 5.5, 100 mM NaCl, 0.05% Tween-20, 37°C, ex 380/em 460 nm, Michaelis-Menten (Z-AAN-AMC) or substrate inhibition model (Z-VAN-AMC)
T1 construct: inferred from the Ni-NTA purification of the proenzyme; made in house; host or cells: LEXSY P10 cells (Leishmania tarentolae expression system), secreted into the supernatant
T1 sequence (Q99538 18-323 limits assumed): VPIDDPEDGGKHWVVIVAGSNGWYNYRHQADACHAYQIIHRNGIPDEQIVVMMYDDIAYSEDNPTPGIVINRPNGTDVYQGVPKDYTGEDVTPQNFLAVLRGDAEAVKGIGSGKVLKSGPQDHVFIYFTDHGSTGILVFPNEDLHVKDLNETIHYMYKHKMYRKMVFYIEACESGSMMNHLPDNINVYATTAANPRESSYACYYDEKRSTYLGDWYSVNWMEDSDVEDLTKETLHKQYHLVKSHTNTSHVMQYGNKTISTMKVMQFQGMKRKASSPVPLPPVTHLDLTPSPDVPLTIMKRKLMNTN
Protocol: K m values for the substrates Z‐AAN‐AMC (benzyloxycarbonyl‐Ala‐Ala‐Asn‐7‐amino‐4‐methylcoumarin) and Z‐VAN‐AMC (benzyloxycarbonyl‐Val‐Ala‐Asn‐7‐amino‐4‐methylcoumarin) toward hLEG were determined in 50 mM citric acid buffer (pH 5.5) containing 100 mM NaCl and 0.05% Tween‐20. Reactions were carried out at 37°C with 2 nM hLEG. Substrate concentrations ranged from 100 to 0.787 μM for Z‐AAN‐AMC and from 75 to 0.28 μM for Z‐VAN‐AMC.
Reactions were initiated by addition of the enzyme, and fluorescence was monitored in a microplate reader (CLARIOstar Plus with Voyager v2405 software, BMG Labtech) at 380 nm excitation and 460 nm emission. All measurements were performed in triplicate (n = 3).
Data analysis was performed in GraphPad Prism (v9.3.1; GraphPad Software, La Jolla, CA) using the built‐in Michaelis–Menten model for Z‐AAN‐AMC and the substrate inhibition model for Z‐VAN‐AMC. Data points corresponding to 23.73 μM Z‐VAN‐AMC were excluded from analysis, as a linear fit of the initial slope was not possible. Standard errors of the curve fits are reported for all fitted parameters.

AtLEGβ = settings: ref Dall et al., [2020]; cited from earlier work
From the text: To probe non‐prime side specificity, we constructed a second peptide library using the format XXXN‐CL, fixing P1' as cysteine and P2' as leucine, based on the highest‐scoring sequences from the prime‐side screen. […] Thr and Val were especially well tolerated, a trend that persisted when P2 was fixed as Ala and P3/P4 were varied (Figure S7b). These predictions were validated experimentally by comparing AtLEGβ affinity for Z‐AAN‐AMC versus Z‐VAN‐AMC fluor ...

[1] = pH 5.5, 37°C, n = 3, ± standard error of fit (Figure 9)

Row | Compound | Km (human legumain (hLEG); n = 3, ± standard error of fit) [µM] | Km (human legumain (hLEG); n = 3, ± standard error of fit, listed as Z-VAN-AMC) [µM] | Vmax ratio Z-VAN-AMC vs Z-AAN-AMC (human legumain (hLEG); pH 5.5, 37°C) | Vmax (human legumain (hLEG); pH 5.5, 37°C, n = 3) [RFU/s] | Vmax (human legumain (hLEG); [1]) [RFU/sec] | Ki (human legumain (hLEG); pH 5.5, 37°C, substrate inhibition model, n = 3, ± standard error of fit) [µM] | Km (AtLEGβ) [µM] | Km (human legumain (hLEG); n = 3, ± standard error of fit, listed as Z-AAN-AMC) [µM]
1 | Cc1cc(=O)oc2cc(NC(=O)[C@H](CC(N)=O)NC(=O)[C@H](C)NC(=O)[C@@H](NC(=O)OCc3ccccc3)C(C)C)ccc12 [Z‐VAN‐AMC, benzyloxycarbonyl‐Val‐Ala‐Asn‐7‐amino‐4‐methylcoumarin] (Cbz-Val-Ala-Asn-{AMC}) | ~20 | 19.6 ± 5.32 | ~ 20 fold | 7800 | 7776 ± 1591 | 16.2 ± 4.5 | 57 ± 3 | 
2 | benzyloxycarbonyl‐Ala‐Ala‐Asn‐7‐amino‐4‐methylcoumarin [Z‐AAN‐AMC] | 55 |  |  | 400 | 399.6 ± 8.6 |  | 337 ± 3 | 55.5 ± 2.4

— article PMC13052201, “Positional scanning and computational modeling reveal determinants of legumain transpeptidase activity” (Protein Science : A Publication of the Protein Society, 2026)
